Experimental data taken from US10301263B2, “Anticonvulsant compound” (Royal Holloway and Bedford New College, priority 2014, dated 2019).

Assays:
AMPA receptors = assay: AMPA receptor mediated current, AMPA receptors expressed in oocytes (FIG. 1); assay type: cell-based
Experimental: Xenopus laevis oocytes were purchased from the European Xenopus Resource Centre, University of Portsmouth.
The bath solutions were perfused at a rate of 10 ml/min.

[1] = test system: rat entorhinal cortex-hippocampus slices; assay: PTZ-induced epileptiform activity in entorhinal cortex-hippocampus slices (CA1 field recording); assay type: cell-based
Experimental: The preparation of entorhinal cortex-hippocampus slices and electrophysiological recording in CA1 were described previously (Armand et al., 1998; Chang and Walker, 2011). In brief, male rats (50-150 g) were decapitated after killing by intraperitoneal injection with an overdose of pentobarbitone (500 mg/kg). The brain was removed and preserved in oxygenated ice-cold sucrose solution in mM: NaCl 87, KCl 2.5, MgCl2 7, CaCl2 0.5, NaH2PO4 1.25, NaHCO3 26.2 sucrose 75, glucose 3. Transverse slices (350 μm) were prepared with a vibratome (VIBRATOME® 1500, Intracel Ltd) and were then stored in an interface chamber containing artificial cerebrospinal fluid solution (aCSF) in mM: NaCl 119, KCl 2.5, MgSO4 1.3, CaCl2 2.5, NaH2PO4 1, NaHCO3 26.2 glucose 16.6. The slices were stored for over one hour. During the experiment, the slices were transferred from the interface chamber into a submerged recording chamber and continuously perfused with prewarmed (about 36° C.) oxygenated (95% O2, 5% CO2) aCSF. A field potential recording was made by placing a glass microelectrodes filled with aCSF solution in stratum radiatum of CA1. A bipolar stimulating electrode was positioned in the Schaffer collateral/commissural fiber pathway in stratum radiatum to confirm slice viability. […] Anticonvulsant effects were evaluated by measuring the frequency of the discharges every minute.

[2] = test system: histone deacetylase (HDAC); assay: HDAC activity assay (fluorescent kit, human nuclear enzyme extracts from HeLa cells); assay type: biochemical
Experimental: FIG. 4b is a graph showing quantification of a histone deacetylase (HDAC) inhibition assay employing human nuclear enzyme extracts (from HeLa cells) as the source of HDAC activity shown as fitted dose-response curves for 4-BCCA;
Histone deacetylase activity was analyzed by using an in vitro commercial assay kit, the HDAC fluorescent activity assay/drug discovery kit HDAC activity (Biomol, Plymouth Meeting, Pa.). The assay was conducted at room temperature according to the manufacturer's protocol, using Trichostatin A (a HDAC inhibitor; at 1 μM concentration) as a positive control. Data were derived from at least triplicate experiments with each experiment comprising at least duplicate measurements (n=6) normalized to controls (without VPA or fatty acids).

[3] = test system: 6 Hz corneal stimulation seizures in CF1 mice; assay: 6 Hz psychomotor seizure test; assay type: in vivo; details: Mus musculus, ip, 32 mA for 3 s
Experimental: Adult male CF1 mice (18-25 g) were pretreated intraperitoneally (i.p.) with each compound at 100-150 mg/kg. After pretreatment, each mouse was given a drop of 0.5% tetracaine hydrochloride to each eye, following by low-frequency (6 Hz) stimulation (32 mA) for 3 seconds delivered through corneal electrodes. Animals were manually restrained and released immediately following the stimulation and observed for the presence or absence of seizure activity at five time points (1/4, 1/2, 1, 2, and 4 hours). Typically, the 6 Hz stimulation results in a seizure characterized by a minimal clonic phase that is followed by stereotyped, automatistic behaviors, including twitching of the vibrissae, and Straub-tail. Animals not displaying such behaviors were considered protected.
The inventors first employed a low frequency (6 Hz), long duration (3 s) corneal stimulation model because numerous second generation anti-epileptic drugs show poor seizure control in this assay (and so such a model may provide evidence of efficacy in drug resistant epilepsy). In this model, compounds are pre-administered to mice via i.p. injection and mice are challenged with sufficient current to elicit a psychomotor response (32 mA for 3 s) (Toman et al., 1952). The model causes forelimb clonus and then automatistic behavior characteristic of limbic epilepsy in humans. […]

MES-induced seizures = assay: Maximal electroshock test (MES); assay type: in vivo, mice; details: Mus musculus, ip
Experimental: The MES is a model for generalized tonic-clonic seizures which provides an indication of a compound's ability to prevent seizure spread when all neuronal circuits in the brain are maximally active. Animals are pretreated with compounds (100-125 mg/kg) by i.p. injection. Seizure activity was induced by delivery of 60 Hz of alternating current (50 mA in mice, 150 in rats) for 0.2 s through corneal electrodes which had been primed with an electrolyte solution containing an anesthetic agent (0.5% tetracaine HCl). An animal is considered “protected” from MES-induced seizures upon abolition of the hind limb tonic extensor component of the seizure (Swinyard et al., 1995; White et al., 1995; White et al., 2007).

[4] = test system: Metrazol-induced clonic seizures; assay: Subcutaneous Metrazol seizure threshold test (scMET); assay type: in vivo, mice; details: i.p.
Experimental: Subcutaneous injection of Metrazol produces clonic seizures in animals. […] Animals were pretreated with each compound (100 mg/kg) in a similar manner to the MES test. Seizure activity was induced by administration of Metrazol (CD97: 85 mg/kg mice; 70 mg/kg rats) into skin in the midline of the neck.

corneal kindled CF1 mice [5] = assay: Corneal kindled mouse model (CKM); assay type: in vivo; details: i.p.
Experimental: This model involves the use of corneal kindled mouse model for prediction of efficacy in human partial seizures (Rowley and White, 2010). Adult male CF1 mice (18-25 g) mice were stimulated through corneal electrodes (3 mA, 60 Hz, 3 seconds) after administration of 0.5% tetracaine hydrochloride to each eye. This procedure was carried out twice daily for an average of 12 days.
After 5-7-days stimulation-free period once the mice were fully kindled, the test compounds were administrated (100 mg/kg, i.p.). Mice in each group were then tested at various time points (0.25, 0.5, 1, 2, 4 hours) after drug dosing. Mice displaying a seizure score <3 are considered protected.

[6] = test system: rat entorhinal cortex-hippocampus slices; details: PTZ-induced seizure-like activity in rat hippocampal slices; Chang et al., 2013; cited from earlier work
[7] = test system: Metrazol-induced clonic seizures; details: scMET; Rowley and White, 2010; cited from earlier work
corneal kindled CF1 mice [8] = details: corneal kindled mouse; cited from earlier work
[9] = DSMV IV, 2000; cited from earlier work

potency of AMPA receptors inhibition (as determined by IC50) relative to decanoic acid (DA) and 4-ethyloctanoic acid (4-EOA) (AMPA receptors) | HDAC inhibition ([2]; FIG. 4B dose-response) | EC50 value (corneal kindled CF1 mice [5]) | IC50 ([2]; HDAC extract derived from a human cell line, read-out: IC50 against HDAC) | Structure (SMILES) | epileptiform activity (frequency of PTZ-induced burst discharges) ([1]; PTZ 2 mM, K+ 6 mM, 20-40 minute treatment, n=5, 1 mM) | block in seizure activity ([1]; PTZ-induced seizure-like activity in rat hippocampal slices) | HDAC inhibitory effect ([2]; upto 10 mM, HDAC extract derived from a human cell line) | ED50 [3] | ED50 (MES-induced seizures) | EC50 value [4] | reduction in seizure activity [6] | equivalent effect (to EC50) dose [7] | equivalent activity (to EC50) dose (corneal kindled CF1 mice [8]) | concentrations found in plasma [9]
comparable potency | no HDAC inhibition | 44 mg/kg |  | CCCC[C@H]1CC[C@H](C(=O)O)CC1 [Compound 4-BCCA, trans-4-butylcyclohexane carboxylic acid] | 1.7±1.5 % of baseline | 100% | does not cause significant inhibitory effect | 81 mg/kg | 100 mg/kg | ~150 mg/kg |  |  |  | 
 |  |  | 2300 µM | CCCC(CCC)C(=O)O [valproic acid, 2-propylpentanoic acid] |  |  |  |  |  |  | 23% | 191 mg/kg | 174 mg/kg | 400 to 700 µM
